According to ChEMBL document CHEMBL4828721, “Substituted dienes prepared from betulinic acid - Synthesis, cytotoxicity, mechanism of action, and pharmacological parameters” (Eur J Med Chem, 2021):

Legend:
U2OS = test: Cytotoxicity against human U2OS cells assessed as reduction in cell viability measured after 72 hrs by MTS assay; assay type: functional, cell-based
MRC5 = test: Cytotoxicity against human MRC5 cells assessed as reduction in cell viability measured after 72 hrs by MTS assay; assay type: cell-based; conditions: MRC5, 72 h
K562 = test: Cytotoxicity against human K562 cells assessed as reduction in cell viability measured after 72 hrs by MTS assay; assay type: functional, cell-based; conditions: K562, 72 h
CEM-DNR = test: Cytotoxicity against daunorubicin resistant human CEM-DNR cells assessed as reduction in cell viability measured after 72 hrs by MTS assay; assay type: functional, cell-based
[1] = Cytotoxicity against paclitaxel resistant human K562-Tax cells assessed as reduction in cell viability measured after 72 hrs by MTS assay; assay type: functional, cell-based
HCT-116 = test: Cytotoxicity against human HCT-116 cells assessed as reduction in cell viability measured after 72 hrs by MTS assay; assay type: functional, cell-based; conditions: HCT-116, 72 h
A549 = test: Cytotoxicity against human A549 cells assessed as reduction in cell viability measured after 72 hrs by MTS assay; assay type: functional, cell-based; conditions: A549, 72 h
BJ = test: Cytotoxicity against human BJ cells assessed as reduction in cell viability measured after 72 hrs by MTS assay; assay type: cell-based
CCRF-CEM = test: Cytotoxicity against human CCRF-CEM cells assessed as reduction in cell viability measured after 72 hrs by MTS assay; assay type: functional, cell-based
[2] = Cytotoxicity against human HCT116 p53-null cells assessed as reduction in cell viability measured after 72 hrs by MTS assay; assay type: functional, cell-based

SMILES | IC50 (U2OS) [µM] | IC50 (MRC5) [µM] | IC50 (K562) [µM] | IC50 (CEM-DNR) [µM] | IC50 [1] [µM] | IC50 (HCT-116) [µM] | IC50 (A549) [µM] | IC50 (BJ) [µM] | IC50 (CCRF-CEM) [µM] | IC50 [2] [µM]
C=C(/C=C/c1ccc(C)cc1)[C@@H]1CC[C@]2(C(=O)O)CC[C@]3(C)[C@H](CC[C@@H]4[C@@]5(C)CC[C@H](O)C(C)(C)[C@@H]5CC[C@]43C)[C@@H]12 | > 50 | > 50 | > 50 | 26.1 | 26.3 | 21.4 | > 50 | > 50 | 5.9 | 18.2
C=C(/C=C/c1cccc(C(F)(F)F)c1)[C@@H]1CC[C@]2(C(=O)O)CC[C@]3(C)[C@H](CC[C@@H]4[C@@]5(C)CC[C@H](O)C(C)(C)[C@@H]5CC[C@]43C)[C@@H]12 | 24.6 | 42.9 | 26.5 | 28.1 | 25.1 | 23.1 | 35.1 | > 50 | 8 | 24.8
C=C(/C=C/c1ccccc1C#N)[C@@H]1CC[C@]2(C(=O)O)CC[C@]3(C)[C@H](CC[C@@H]4[C@@]5(C)CC[C@H](O)C(C)(C)[C@@H]5CC[C@]43C)[C@@H]12 | 40.4 | > 50 | > 50 | 26.8 | 24.8 | 36.6 | > 50 | > 50 | 23.2 | 47
C=C(/C=C/c1ccc(Cl)cc1)[C@@H]1CC[C@]2(C(=O)O)CC[C@]3(C)[C@H](CC[C@@H]4[C@@]5(C)CC[C@H](O)C(C)(C)[C@@H]5CC[C@]43C)[C@@H]12 | 25.8 | > 50 | 46.3 | 33.1 | 29.2 | 39.5 | 45.4 | > 50 | 5.4 | 38.5
C=C(/C=C/c1cccc(C#N)c1)[C@@H]1CC[C@]2(C(=O)O)CC[C@]3(C)[C@H](CC[C@@H]4[C@@]5(C)CC[C@H](O)C(C)(C)[C@@H]5CC[C@]43C)[C@@H]12 | > 50 | > 50 | > 50 | 21.6 | 22.7 | 35.1 | > 50 | > 50 | 12.1 | 29.4
C=C(/C=C/c1cccc(OC)c1)[C@@H]1CC[C@]2(C(=O)O)CC[C@]3(C)[C@H](CC[C@@H]4[C@@]5(C)CC[C@H](O)C(C)(C)[C@@H]5CC[C@]43C)[C@@H]12 | 25.2 | 44.1 | 41.4 | 30.6 | 25.6 | 34.6 | 40.1 | > 50 | 4.6 | 39.6
C=C(/C=C/c1ccc(F)cc1)[C@@H]1CC[C@]2(C(=O)O)CC[C@]3(C)[C@H](CC[C@@H]4[C@@]5(C)CC[C@H](O)C(C)(C)[C@@H]5CC[C@]43C)[C@@H]12 | 23.9 | 38.3 | 36.2 | 31.4 | 29.8 | 35.4 | 40.6 | 44.6 | 4.9 | 41
C=C(/C=C/c1ccccc1I)[C@@H]1CC[C@]2(C(=O)O)CC[C@]3(C)[C@H](CC[C@@H]4[C@@]5(C)CC[C@H](O)C(C)(C)[C@@H]5CC[C@]43C)[C@@H]12 | 28.5 | 29.5 | 25.1 | > 50 | > 50 | 29.6 | 29.7 | > 50 | 20.6 | 29.5
C=C(/C=C/c1ccccc1Br)[C@@H]1CC[C@]2(C(=O)O)CC[C@]3(C)[C@H](CC[C@@H]4[C@@]5(C)CC[C@H](O)C(C)(C)[C@@H]5CC[C@]43C)[C@@H]12 | 27.8 | 35.3 | 21.6 | 49.1 | 47.9 | 27.2 | 28.6 | 46.7 | 16.8 | 24.5
C=C(/C=C/c1ccncc1)[C@@H]1CC[C@]2(C(=O)O)CC[C@]3(C)[C@H](CC[C@@H]4[C@@]5(C)CC[C@H](O)C(C)(C)[C@@H]5CC[C@]43C)[C@@H]12 | 29.7 | > 50 | 43.4 | 20.5 | 20.6 | 35 | 46 | > 50 | 5.9 | 30.6
C=C(/C=C/c1ccccc1F)[C@@H]1CC[C@]2(C(=O)O)CC[C@]3(C)[C@H](CC[C@@H]4[C@@]5(C)CC[C@H](O)C(C)(C)[C@@H]5CC[C@]43C)[C@@H]12 | 27.7 | 31.7 | 21.8 | 23.2 | 25.1 | 24.5 | 29.7 | 42.1 | 15.4 | 22.6
C=C(/C=C/c1ccc(C(=O)O)cc1)[C@@H]1CC[C@]2(C(=O)O)CC[C@]3(C)[C@H](CC[C@@H]4[C@@]5(C)CC[C@H](O)C(C)(C)[C@@H]5CC[C@]43C)[C@@H]12 | 49 | > 50 | > 50 | 32 | 39.2 | 39 | > 50 | > 50 | 17.5 | 42.5
C=C(/C=C/c1cccc(I)c1)[C@@H]1CC[C@]2(C(=O)O)CC[C@]3(C)[C@H](CC[C@@H]4[C@@]5(C)CC[C@H](O)C(C)(C)[C@@H]5CC[C@]43C)[C@@H]12 | 28.4 | > 50 | 25.2 | > 50 | 48.4 | 27.3 | 38.7 | > 50 | 11.6 | 29.5
C=C(/C=C/c1ccc(OC)cc1)[C@@H]1CC[C@]2(C(=O)O)CC[C@]3(C)[C@H](CC[C@@H]4[C@@]5(C)CC[C@H](O)C(C)(C)[C@@H]5CC[C@]43C)[C@@H]12 | 48.6 | > 50 | > 50 | > 50 | 48.6 | 42.4 | > 50 | > 50 | 20.9 | 48.9
C=C(C=O)[C@@H]1CC[C@]2(C(=O)O)CC[C@]3(C)[C@H](CC[C@@H]4[C@@]5(C)CC[C@H](O)C(C)(C)[C@@H]5CC[C@]43C)[C@@H]12 | 1.3 | 2.6 | 3.4 | 3.8 | 1.3 | 1.9 | > 50 | 6.7 | 0.8 | 1.9
C=C(/C=C/c1ccc(I)cc1)[C@@H]1CC[C@]2(C(=O)O)CC[C@]3(C)[C@H](CC[C@@H]4[C@@]5(C)CC[C@H](O)C(C)(C)[C@@H]5CC[C@]43C)[C@@H]12 | 32.2 | 41.2 | > 50 | > 50 | > 50 | 30.7 | > 50 | > 50 | 16 | 33.3
C=C(/C=C/c1cccc(C)c1)[C@@H]1CC[C@]2(C(=O)O)CC[C@]3(C)[C@H](CC[C@@H]4[C@@]5(C)CC[C@H](O)C(C)(C)[C@@H]5CC[C@]43C)[C@@H]12 | 18.2 | 42.2 | 24.9 | 21.4 | 23.6 | 24.7 | 36.5 | > 50 | 9.5 | 22.3
C=C(/C=C/c1cccc(F)c1)[C@@H]1CC[C@]2(C(=O)O)CC[C@]3(C)[C@H](CC[C@@H]4[C@@]5(C)CC[C@H](O)C(C)(C)[C@@H]5CC[C@]43C)[C@@H]12 | 27.7 | 32.1 | 21.6 | 23.1 | 21.9 | 23 | 28.7 | 41.5 | 11.7 | 21
